{"source": "paper PMC7335050", "about": "“Characterization of an alternative BAK-binding site for BH3 peptides” (Nature Communications, 2020)", "key": {"[1]": {"molecular_target": "T1, BAKΔTM (Homo sapiens, UniProt Q16611)", "T1 construct": "BAKΔTM (GenBank BC004431, residues 1–186); His6; made in house; host or cells: E. coli BL21", "T1 sequence (Q16611 1-186)": "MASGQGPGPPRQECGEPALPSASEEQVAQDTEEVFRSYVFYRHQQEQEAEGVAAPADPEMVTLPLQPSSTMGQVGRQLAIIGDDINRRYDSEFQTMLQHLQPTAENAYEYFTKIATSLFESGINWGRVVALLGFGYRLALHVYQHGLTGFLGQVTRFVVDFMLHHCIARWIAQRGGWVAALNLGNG", "assay": "SPR binding of BH3 peptides to immobilized BAKΔTM", "conditions": "for Kd: BAKΔTM immobilized on CM5 chip, steady-state analysis, three independent SPR assays, top concentrations not threefold above KD, read-out: Approximate dissociation constant ranges, KDs for BAK"}, "[2]": {"tested_on": "BAK (His6-BAKΔTM)", "assay": "Liposome permeabilization assay (FITC-dextran release) with BAK", "format": "biochemical, human", "conditions": "50 nM BAK + 50 nM BH3 peptide", "protocol": "(§1) 1-Palmitoyl-2-oleoyl-sn-glycero-3-phosphocholine, 1-plamitoyl-2-oleoyl-sn-glycero-3-phosphoethanolamine, L-α-phosphatidyl-inositol, cardiolipin, cholesterol and 18:1 DGS-NTA(Ni) were mixed at a weight ratio of 36:22:9:8:20:5, and dried as thin films in glass test tubes under nitrogen for 16 h. To encapsulate FITC-labeled dextran 10 (F-d10), 50 mg F-d10 was added to 50 mg lipid in 1 ml of 150 KCl buffer containing 20 mM HEPES (pH 7.0), sonicated and extruded 15 times through a 400 nm polycarbonate membrane. Liposomes with F-d10 were further purified by gel filtration on Sephacryl S-300 HR (GE Healthcare). Phosphate was determined by colorimetric assay (Abcam, Cambridge, UK).\n(§2) Release of F-d10 from large unilamellar vesicles (LUVs) was monitored by fluorescence dequenching[25] using a fluorimetric plate reader (Thermo Scientific) with SoftMax Pro software. After addition of purified His6-BAKΔTM and/or the BH3 peptides to LUVs (final lipid concentration 10 µg ml^−1), 96 well plates were incubated at 37 °C and recorded (excitation 485 nm, emission 538 nm) every 10 sec. FITC-labeled dextran release was calculated using the equation ((Fsample − Fblank)/(FTriton − Fblank) × 100%), where Fsample, Fblank, and FTriton are the fluorescence recorded for the reagent-, buffer-, and 1% Triton-treated LUVs, respectively."}, "[3]": {"tested_on": "human BAKΔTM", "assay": "Cytochrome c release from mitochondria of Bak−/−Bax−/− MEFs plus purified human BAKΔTM", "format": "biochemical", "conditions": "2 μM His6-BAKΔTM, 5 μM BH3 peptide, 25 °C, 90 min, immunoblotting", "protocol": "(§3) Mitochondria[43] purified from Bax^−/− MEFs were incubated with the indicated concentrations of navitoclax, S63845 or BH3 peptides at 25 °C for 90 min. After centrifugation (10,000 g, 15 min) and washing, supernatants and pellets were analyzed by immunoblotting. Alternatively, His6-BAKΔTM was dialyzed against mitochondria (mito) buffer (150 mM KCl, 5 mM MgCl2, 1 mM EGTA, 25 mM HEPES, pH 7.5) and diluted into mito buffer with 5 mM DTT. Mitochondria purified from Bak^−/−Bax^−/− MEFs were then incubated with 2 μM His6-BAKΔTM and the indicated BH3 peptides (5 μM) at 25 °C for 90 min. After centrifugation (10,000 × g, 15 min) and washing, supernatants and pellets were analyzed by immunoblotting."}, "[4]": {"tested_on": "BAK F161A", "conditions": "SPR, ~4000 RU immobilized, series of peptide concentrations, three independent experiments", "from_the_text": "(§4) Plasmids encoding BAKΔTM (GenBank BC004431, residues 1–186) in pET29b(+) was kindly provided by Qian Liu and Kalle Gehring (McGill University, Montreal, Canada)[34]. Plasmids encoding BAK 15–186 and the corresponding BAK mutants were generated using site-directed mutagenesis. All plasmids were subjected to automated sequencing to verify the described alterations and confirm that no additional mutations were present.\n(§5) Proteins for SPR were further purified by FPLC on Superdex S200, concentrated in a centrifugal concentrator (Centricon, Millipore), dialyzed against Biacore buffer (10 mM 4-(2-hydroxyethyl)-1-piperazineethanesulfonic acid (HEPES; pH 7.4), 150 mM NaCl, 0.05 mM ethylenediaminetetraacetic acid (EDTA) and 0.005% (w/v) polysorbate 20) and stored at 4 °C for <48 h before use.\n(§6) BAKΔTM or mutants were immobilized on a CM5 chip using a Biacore T200 biosensor with a blank channel as a negative control. Binding assays were performed at 25 °C using Biacore buffer containing the indicated BH3 peptides injected at 30 µl per min for 1 min using a Biacore T200 Control Software. Proteins were allowed to dissociate during perfusion with Biacore buffer at 30 µl per min for 10 min and then desorbed with 2 M MgCl2. All binding affinities were derived by Biacore T200 Evaluation Software using Steady State analysis (Biacore, Uppsala, Sweden)."}, "[5]": {"tested_on": "BAK F93E", "conditions": "SPR, about 4000 RU immobilized, series of peptide concentrations, three independent experiments", "from_the_text": "as §4, §5, §6"}, "[6]": {"tested_on": "BAK G126S", "conditions": "SPR, about 4000 RU immobilized, series of peptide concentrations, three independent experiments", "from_the_text": "as §4, §5, §6"}, "[7]": {"tested_on": "BAK H164A/H165A", "conditions": "SPR, ~4000 RU immobilized, series of peptide concentrations, three independent experiments", "from_the_text": "as §4, §5, §6"}, "[8]": {"tested_on": "BAKΔTM F161A", "assay": "Liposome permeabilization assay with BAKΔTM F161A", "format": "biochemical, human", "conditions": "50 nM BAKΔTM F161A vs WT, 50 nM BH3 peptide, three independent experiments", "protocol": "as §1, §2"}, "[9]": {"tested_on": "Bak in mitochondria from Bax−/− MEFs", "assay": "Cytochrome c release from mitochondria of Bax−/− MEFs", "format": "biochemical, mouse", "protocol": "as §3"}, "[10]": {"conditions": "90 min at 25 °C, immunoblotting of supernatants and pellets"}}, "note": "Values joined by “and” are separate entries in the source; they are usually repeats but may differ in a detail not shown here. Equal values may be shown once. “Also recorded” adds a separate entry of the source. Residues, ends and D or L forms follow the SMILES beside them.", "data": [{"compound": "CC[C@H](C)[C@H](NC(=O)[C@H](CS)NC(=O)[C@H](CCC(N)=O)NC(=O)[C@H](CC(C)C)NC(=O)[C@H](CCCCN)NC(=O)[C@H](CCCNC(=N)N)NC(=O)[C@H](C)NC(=O)[C@@H](NC(=O)[C@H](CCC(N)=O)NC(=O)[C@@H](NC(=O)[C@H](CCC(=O)O)NC(=O)[C@H](C)NC(=O)[C@@H](N)CCC(N)=O)C(C)C)[C@@H](C)CC)C(=O)N[C@@H](C)C(=O)N[C@@H](CC(=O)O)C(=O)N[C@@H](CCC(N)=O)C(=O)N[C@@H](Cc1ccccc1)C(=O)N[C@@H](Cc1c[nH]cn1)C(=O)N[C@@H](CCCNC(=N)N)C(=O)N[C@@H](CC(C)C)C(=O)N[C@@H](Cc1c[nH]cn1)C(=O)N[C@H](C(=O)N[C@@H](CCC(N)=O)C(=O)N[C@@H](CCC(N)=O)C(=O)N[C@@H](Cc1c[nH]cn1)C(=O)N[C@@H](CCC(N)=O)C(=O)O)C(C)C", "note": "[BMF BH3] (H-QAEVQIARKLQCIADQFHRLHVQQHQ-OH; N-terminus and C-terminus assumed)", "values": [{"measurement": "Kd", "setting": "[1]; SPR, 25 °C", "result": "400 to 600 nM and < 1000 nM"}, {"measurement": "Association and dissociation, direct comparison of SPR curves", "setting": "[1]; peptides at 1600 nM, immobilized BAKΔTM", "result": "fastest association with BAKΔTM and slowest dissociation"}, {"measurement": "BAK-dependent release of liposome contents (FITC-dextran release)", "setting": "[2]; 37 °C, fluorescence dequenching, BAK alone 28%, mean of three independent experiments", "result": 46, "unit": "%"}, {"measurement": "Cytochrome c release, in words", "setting": "[3]", "result": "intermediate amount"}, {"measurement": "Effect of BAK F161A mutation on peptide binding (maximum RU) vs WT BAKΔTM", "setting": "[4]", "result": "diminished binding"}, {"measurement": "Effect of BAK F93E mutation on peptide binding (maximum RU) vs WT BAKΔTM", "setting": "[5]", "result": "did not appreciably affect binding"}, {"measurement": "Effect of BAK G126S mutation on peptide binding (maximum RU) vs WT BAKΔTM", "setting": "[6]", "result": "did not appreciably affect binding"}, {"measurement": "Effect of BAK H164A/H165A mutation on peptide binding (maximum RU) vs WT BAKΔTM", "setting": "[7]", "result": "diminished binding"}, {"measurement": "Effect of F161A mutation on BAK-mediated liposome permeabilization initiated by the peptide", "setting": "[8]", "result": "markedly decreased"}]}, {"compound": "Cc1c(-c2c(-c3ccc(F)o3)sc3ncnc(O[C@H](Cc4ccccc4OCc4ccnn4CC(F)(F)F)C(=O)O)c23)ccc(OCCN2CCN(C)CC2)c1Cl", "note": "[S63845]", "values": [{"measurement": "Cytochrome c release, in words", "setting": "[9]; [10]", "result": "failed to induce cytochrome c release"}]}, {"compound": "CC[C@H](C)[C@H](NC(=O)[C@H](CCC(=O)O)NC(=O)[C@H](CCCNC(=N)N)NC(=O)[C@H](C)NC(=O)[C@H](Cc1c[nH]c2ccccc12)NC(=O)[C@@H](N)CCC(N)=O)C(=O)NCC(=O)N[C@@H](C)C(=O)N[C@@H](CCC(N)=O)C(=O)N[C@@H](CC(C)C)C(=O)N[C@@H](CCCNC(=N)N)C(=O)N[C@@H](CCCNC(=N)N)C(=O)N[C@@H](CCSC)C(=O)N[C@@H](C)C(=O)N[C@@H](CC(=O)O)C(=O)N[C@@H](CC(=O)O)C(=O)N[C@@H](CC(C)C)C(=O)N[C@@H](CC(N)=O)C(=O)N[C@@H](C)C(=O)N[C@@H](CCC(N)=O)C(=O)N[C@@H](Cc1ccc(O)cc1)C(=O)N[C@@H](CCC(=O)O)C(=O)N[C@@H](CCCNC(=N)N)C(=O)N[C@@H](CCCNC(=N)N)C(=O)N[C@@H](CCCNC(=N)N)C(=O)N[C@@H](CCC(N)=O)C(=O)O", "note": "[PUMA BH3, reference compound]", "values": [{"measurement": "Kd", "setting": "[1]; SPR, 25 °C", "result": "2000 to 2800", "unit": "nM"}, {"measurement": "Effect of F161A mutation on BAK-mediated liposome permeabilization initiated by the peptide", "setting": "[8]", "result": "did not affect"}]}, {"compound": "CC1(C)CCC(c2ccc(Cl)cc2)=C(CN2CCN(c3ccc(C(=O)NS(=O)(=O)c4ccc(N[C@H](CCN5CCOCC5)CSc5ccccc5)c(S(=O)(=O)C(F)(F)F)c4)cc3)CC2)C1", "note": "[navitoclax]", "values": [{"measurement": "Cytochrome c release, in words", "setting": "[9]; [10]", "result": "failed to induce cytochrome c release"}, {"measurement": "Effect on BIK or HRK BH3-induced cytochrome c release", "setting": "[9]; navitoclax applied along with BIK BH3 or HRK BH3", "result": "did not enhance"}]}, {"compound": "CC[C@H](C)[C@H](NC(=O)[C@H](CS)NC(=O)[C@H](C)NC(=O)[C@H](CC(C)C)NC(=O)[C@H](CCCNC(=N)N)NC(=O)[C@H](CC(C)C)NC(=O)[C@H](C)NC(=O)[C@H](CC(C)C)NC(=O)[C@H](C)NC(=O)[C@H](CC(=O)O)NC(=O)[C@H](CO)NC(=O)CNC(=O)[C@@H](N)CCC(=O)O)C(=O)NCC(=O)N[C@@H](CC(=O)O)C(=O)N[C@@H](CCC(=O)O)C(=O)N[C@@H](CCSC)C(=O)N[C@@H](CC(=O)O)C(=O)N[C@H](C(=O)N[C@@H](CO)C(=O)N[C@@H](CC(C)C)C(=O)N[C@@H](CCCNC(=N)N)C(=O)N[C@@H](C)C(=O)N1CCC[C@H]1C(=O)N[C@@H](CCCNC(=N)N)C(=O)O)C(C)C", "note": "[BIK BH3] (H-EGSDALALRLACIGDEMDVSLRAPR-OH; N-terminus and C-terminus assumed)", "values": [{"measurement": "Kd", "setting": "[1]; SPR, 25 °C", "result": "> 10000", "unit": "nM"}, {"measurement": "Binding to BAKΔTM by SPR, in words", "setting": "[1]; SPR, immobilized BAKΔTM, 25 °C", "result": "did not detect interactions; also recorded: undetectable"}, {"measurement": "Increase of BAK-mediated liposome release, in words", "setting": "[2]", "result": "did not appreciably increase"}, {"measurement": "Concentration that induced cytochrome c release", "setting": "[9]; 90 min at 25 °C, immunoblotting of supernatants and pellets, 10 μM highest concentration tested", "result": 10, "unit": "µM"}, {"measurement": "Fold less active than the HRK BH3 peptide in cytochrome c release", "setting": "[9]; MCL1 inhibitor S63845 added together with peptide, response to reviewers", "result": "about 10 fold"}, {"measurement": "Cytochrome c release, in words", "setting": "[3]", "result": "barely induced cytochrome c release"}]}]}
